Results: the supplement of paper PMC10307832

How the values were obtained:
Assay in all cases: relative viability (nuclei count vs DMSO), 5 days (fraction); higher = more cells survive
NCI-H520 = tested on: NCI-H520
Summary of the method: (§1)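 Lung cancer cell lines were seeded in 1536-well plates and dosed by pin tool the next day, with either a single drug or a fixed anchor-drug dose combined with five library-drug doses (not always all listed) spaced in √10 steps. Five days later, one step fixed the cells and stained their nuclei (final 0.05% Triton X-100, 1% formaldehyde, 1 ug/ml Hoechst), and nuclei were counted on 4× images. Relative viability is the nuclei count in treated wells divided by the count in vehicle wells, and each value is the median of duplicate plates.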

CAL-12T = tested on: CAL-12T
Summary of the method: as §1

LCLC-97TM1 = tested on: LCLC-97TM1
Summary of the method: as §1

BEN = tested on: BEN
Summary of the method: as §1

NCI-H2087 = tested on: NCI-H2087
Summary of the method: as §1

PC-3 [JPC-3] = tested on: PC-3 [JPC-3]
Summary of the method: as §1

NCI-H2023 = tested on: NCI-H2023
Summary of the method: as §1

HCC-15 = tested on: HCC-15
Summary of the method: as §1

NCI-H727 = tested on: NCI-H727
Summary of the method: as §1

NCI-H650 = tested on: NCI-H650
Summary of the method: as §1

NCI-H1915 = tested on: NCI-H1915
Summary of the method: as §1

LC-2-ad = tested on: LC-2-ad
Summary of the method: as §1

NCI-H1944 = tested on: NCI-H1944
Summary of the method: as §1

H3255 = tested on: H3255
Summary of the method: as §1

NCI-H661 = tested on: NCI-H661
Summary of the method: as §1

NCI-H460 = tested on: NCI-H460
Summary of the method: as §1

NCI-H596 = tested on: NCI-H596
Summary of the method: as §1

NCI-H1651 = tested on: NCI-H1651
Summary of the method: as §1

A-427 = tested on: A-427
Summary of the method: as §1

NCI-H441 = tested on: NCI-H441
Summary of the method: as §1

NCI-H1792 = tested on: NCI-H1792
Summary of the method: as §1

ABC-1 = tested on: ABC-1
Summary of the method: as §1

201T = tested on: 201T
Summary of the method: as §1

CC(C)Oc1cc(Nc2nc(N[C@@H](C)c3ccc(F)cn3)ncc2Cl)n[nH]1 [AZ23] + C[C@]1(O)C[C@@H](c2nc(-c3ccc4ccc(-c5ccccc5)nc4c3)c3c(N)nccn32)C1 [Linsitinib] (partner 1 µM)
relative viability (NCI-H520; first compound 0.01 µM): 1.18 | relative viability (NCI-H520; first compound 0.03162 µM): 1.04 | relative viability (NCI-H520; first compound 0.3162 µM): 0.921 | relative viability (CAL-12T; first compound 0.01 µM): 0.551 | relative viability (CAL-12T; first compound 0.03162 µM): 0.724 | relative viability (CAL-12T; first compound 0.3162 µM): 0.861 | relative viability (LCLC-97TM1; first compound 0.01 µM): 0.185 | relative viability (LCLC-97TM1; first compound 0.03162 µM): 0.17 | relative viability (LCLC-97TM1; first compound 0.3162 µM): 0.168 | relative viability (BEN; first compound 0.01 µM): 1 | relative viability (BEN; first compound 0.03162 µM): 0.966 | relative viability (BEN; first compound 0.3162 µM): 0.977 | relative viability (NCI-H2087; first compound 0.01 µM): 1.34 | relative viability (NCI-H2087; first compound 0.03162 µM): 1.06 | relative viability (NCI-H2087; first compound 0.3162 µM): 0.955 | relative viability (PC-3 [JPC-3]; first compound 0.01 µM): 1.03 | relative viability (PC-3 [JPC-3]; first compound 0.03162 µM): 1.04 | relative viability (PC-3 [JPC-3]; first compound 0.3162 µM): 0.973 | relative viability (NCI-H2023; first compound 0.03162 µM): 0.666 | relative viability (NCI-H2023; first compound 0.3162 µM): 0.731 | relative viability (HCC-15; first compound 0.01 µM): 0.916 | relative viability (HCC-15; first compound 0.03162 µM): 0.906 | relative viability (HCC-15; first compound 0.3162 µM): 0.875 | relative viability (NCI-H727; first compound 0.01 µM): 0.354 | relative viability (NCI-H727; first compound 0.03162 µM): 0.281 | relative viability (NCI-H727; first compound 0.3162 µM): 0.277 | relative viability (NCI-H650; first compound 0.01 µM): 0.648 | relative viability (NCI-H650; first compound 0.03162 µM): 0.893 | relative viability (NCI-H650; first compound 0.3162 µM): 0.857 | relative viability (NCI-H1915; first compound 0.01 µM): 1.13 | relative viability (NCI-H1915; first compound 0.03162 µM): 1.1 | relative viability (NCI-H1915; first compound 0.3162 µM): 1.09 | relative viability (LC-2-ad; first compound 0.01 µM): 0.941 | relative viability (LC-2-ad; first compound 0.03162 µM): 0.931 | relative viability (LC-2-ad; first compound 0.3162 µM): 0.851 | relative viability (NCI-H1944; first compound 0.01 µM): 1.12 | relative viability (NCI-H1944; first compound 0.03162 µM): 1.18 | relative viability (NCI-H1944; first compound 0.3162 µM): 1.26 | relative viability (H3255; first compound 0.01 µM): 1.03 | relative viability (H3255; first compound 0.03162 µM): 1.08 | relative viability (H3255; first compound 0.3162 µM): 0.985 | relative viability (NCI-H661; first compound 0.01 µM): 0.531 | relative viability (NCI-H661; first compound 0.03162 µM): 0.776 | relative viability (NCI-H661; first compound 0.3162 µM): 0.623 | relative viability (NCI-H460; first compound 0.01 µM): 0.366 | relative viability (NCI-H460; first compound 0.03162 µM): 0.933 | relative viability (NCI-H460; first compound 0.3162 µM): 0.851 | relative viability (NCI-H596; first compound 0.01 µM): 1.09 | relative viability (NCI-H596; first compound 0.03162 µM): 1.18 | relative viability (NCI-H596; first compound 0.3162 µM): 1 | relative viability (NCI-H1651; first compound 0.01 µM): 0.691 | relative viability (NCI-H1651; first compound 0.03162 µM): 1 | relative viability (NCI-H1651; first compound 0.3162 µM): 1.18 | relative viability (A-427; first compound 0.01 µM): 1.24 | relative viability (A-427; first compound 0.03162 µM): 1.11 | relative viability (A-427; first compound 0.3162 µM): 1.16 | relative viability (NCI-H441; first compound 0.01 µM): 0.608 | relative viability (NCI-H441; first compound 0.03162 µM): 0.622 | relative viability (NCI-H441; first compound 0.3162 µM): 0.591 | relative viability (NCI-H1792; first compound 0.01 µM): 0.565 | relative viability (NCI-H1792; first compound 0.03162 µM): 0.597 | relative viability (NCI-H1792; first compound 0.3162 µM): 0.61 | relative viability (ABC-1; first compound 0.01 µM): 0.573 | relative viability (ABC-1; first compound 0.03162 µM): 0.916 | relative viability (ABC-1; first compound 0.3162 µM): 0.866 | relative viability (201T; first compound 0.01 µM): 1.01 | relative viability (201T; first compound 0.03162 µM): 1.11 | relative viability (201T; first compound 0.3162 µM): 0.996
